Publication PMC3759162 (Cellular and molecular life sciences : CMLS, 2012)

What was measured:
[1] = biological target: T1, NSBP-1 (D2096.8; nematode sterol-binding protein 1) (Caenorhabditis elegans, UniProt Q19007)
T1 sequence (Q19007 1-316): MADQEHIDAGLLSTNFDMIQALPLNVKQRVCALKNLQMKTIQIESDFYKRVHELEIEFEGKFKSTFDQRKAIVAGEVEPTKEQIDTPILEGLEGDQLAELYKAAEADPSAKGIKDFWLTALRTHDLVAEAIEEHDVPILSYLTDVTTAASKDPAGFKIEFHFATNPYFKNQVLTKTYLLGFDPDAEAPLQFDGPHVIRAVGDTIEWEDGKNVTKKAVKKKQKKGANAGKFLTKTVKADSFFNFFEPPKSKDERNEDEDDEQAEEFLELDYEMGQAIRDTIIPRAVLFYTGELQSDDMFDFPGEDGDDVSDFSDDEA

[2] = biological target: T1, NSBP-1 (D2096.8; nematode sterol-binding protein 1); assay: competition with […] [3H]cholesterol on GST fusion protein

Kd [1] [nM]	IC50 [2] [nM]	Structure (SMILES)
87.5 ± 27.7	40 ± 5.6	CC(C)CCC[C@@H](C)[C@H]1CC[C@H]2[C@@H]3CC=C4C[C@@H](O)CC[C@]4(C)[C@H]3CC[C@]12C [cholesterol]
	~630	C[C@H](CCCC(C)(C)O)[C@H]1CC[C@H]2[C@@H]3CC=C4C[C@@H](O)CC[C@]4(C)[C@H]3CC[C@]12C [25-hydroxycholesterol]
